According to US20250333418A1, “PURINE COMPOUNDS, COMPOSITIONS COMPRISING THEM AND USES THEREOF” (Novo Nordisk A/S, priority 2022, published 2025):

What was measured:
human CB1 receptor [1] = molecular target: T1, human CB1 receptor (Homo sapiens, UniProt P21554); assay: bioSensAll β-arrestin2 plasma membrane translocation (+GRK2) BRET biosensor assay in HEK293 cells transfected with hCB1; test compound added before EC75-80 of agonist CP55,940 (100 nM); format: cell-based; settings: βArrestin2 (+GRK2) BRET biosensor, vs CP55,940 100 nM (EC75-80), read-out: CB1 wt βarr2 IC50
T1 construct: expressed in transfected cells; host or cells: HEK293
Experimental: (§1) Using polyethylenimine (PEI) transfection agent, HEK293 cells were transfected in suspension with the human CB1 receptor and one of the following bioSensAll® assays: GAPL-Gi2, or β-arrestin plasma membrane (PM) translocation biosensor (+GRK2). Cells were directly seeded in 96-well plates immediately following transfection.
(§2) Cells were incubated with coelenterazine (luciferase substrate) and different test compounds prior to the measurement of BRET signals.
(§3) Used in this project are i) Gα plasma membrane (GAPL) biosensors and the ii) β-arrestin plasma membrane translocation biosensor.
ii) The multimolecular β-arrestin membrane recruitment biosensors allow for real-time spatio-temporal monitoring of β-arrestin 1 and β-arrestin 2 following GPCR activation. Specifically, these β-arrestin sensors were designed to detect the recruitment of proteins to the plasma membrane (β-arrestin PM) with localization to compartment resulting in an increased BRET signal.
(§4) HEK293 cells were maintained in Dulbecco's Modified Eagle Medium (DMEM) (Wisent; cat #319-030-CL: without sodium pyruvate, with 4.5 g/L glucose, without L-glutamine) supplemented with 1% penicillin-streptomycin (Wisent; cat #450-201-EL) and 2 or 10% fetal bovine serum (Wisent cat #090150).
(§5) HEK293 cells were co-transfected with hCB1 and one of the above-listed bioSensAll® assays. For each transfection condition: • the total amount of transfected DNA was kept constant at 1 μg per mL of cell culture to be transfected; whenever necessary, salmon sperm DNA (Invitrogen, cat #15632011) was used as ‘carrier’ DNA to supplement plasmid DNA (i.e., biosensor and receptor); • the PEI (polyethylenimine 25 kDa linear, PolyScience, cat #23966) to DNA ratio (ug:ug) was fixed at 3:1.
(§6) Transfections were carried out as follows: • DNA and PEI were first diluted separately in 150 mM NaCl. The volume of the diluent in each tube corresponds to 5% of the cell culture volume to be transfected. • Once DNA and PEI were diluted, the PEI-containing solution was added to the DNA solution and the DNA/PEI mixture immediately vortexed for 5 seconds. • The DNA/PEI mixture was incubated for at least 20 minutes at room temperature to allow for the formation of DNA/PEI complexes. • During the incubation, HEK293 cells were detached, counted and re-suspended in culture medium (composition specified above). • At the end of the incubation period, the DNA/PEI mixture was added to the cells. • Cells were finally distributed in 96-well plates (White Opaque 96-well/Microplates, Greiner, cat #655083 or CulturPlate-96, White Opaque 96-well Microplate, PerkinElmer, cat #6005688) at a density of 30,000 cells per well.
(§7) At 48 hours post-transfection: • Using 450-Select TS Biotek plate washer, culture medium was aspirated and replaced with 100 μL of Hank's Balanced Salt Solution buffer (HBSS) (Wisent, cat #319-067CL: without red phenol; with sodium bicarbonate, with calcium and magnesium, with HEPES) per well. • Plates were then incubated (equilibrated) at 37° C., 5% CO2 for 60 minutes. • Increasing doses of test compounds were then added to each well using the HP D300e digital dispenser (Tecan). All compounds were assayed at the following 12 concentrations (in nM) with each biosensor: 0.000, 0.013, 0.040, 0.120, 0.320, 0.960, 2.80, 8.00, 24.0, 70.0, 205 and 600. • Three to 5 minutes later, an assay-specific effective concentration (EC)75-80 of agonist CP55,940 (i.e., 0.1 nM and 100 nM for G[…]i2-GAPL or […]Arrestin2 (+GRK2) assay, respectively) was added to wells previously injected with test compound (i.e., previous step 3). […]

human CB1 receptor [2] = molecular target: T1, human CB1 receptor; assay: bioSensAll GAPL-Gi2 BRET biosensor assay in HEK293 cells transfected with hCB1; test compound added before EC75-80 of agonist CP55,940 (0.1 nM); format: cell-based; settings: vs CP55,940 0.1 nM (EC75-80), read-out: CB1 wt Gi2 IC50
Experimental: as §1, §2, §3
i) GAPL sensors are used to monitor the activation of heterotrimeric G proteins at the plasma membrane upon receptor stimulation. Specifically, these multimolecular BRET sensors detect the plasma membrane recruitment of proteins that interact with active Gα subunits in a G protein family-selective manner. G protein activation following receptor stimulation generally leads to an increase in the BRET signal.
as §4, §5, §6, §7

T1 sequence (P21554 whole entry): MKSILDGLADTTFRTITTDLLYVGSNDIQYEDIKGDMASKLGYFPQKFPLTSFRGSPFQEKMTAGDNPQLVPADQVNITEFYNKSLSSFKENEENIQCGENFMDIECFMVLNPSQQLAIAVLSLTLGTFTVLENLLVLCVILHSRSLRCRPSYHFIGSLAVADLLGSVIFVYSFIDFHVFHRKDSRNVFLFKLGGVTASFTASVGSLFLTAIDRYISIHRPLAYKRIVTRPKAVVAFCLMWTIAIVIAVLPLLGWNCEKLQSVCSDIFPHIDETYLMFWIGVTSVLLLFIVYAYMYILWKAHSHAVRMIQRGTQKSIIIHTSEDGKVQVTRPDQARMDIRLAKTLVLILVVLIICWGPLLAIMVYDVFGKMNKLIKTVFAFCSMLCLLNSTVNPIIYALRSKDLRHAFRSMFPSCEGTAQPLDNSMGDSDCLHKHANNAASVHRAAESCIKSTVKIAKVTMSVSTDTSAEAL

Row | SMILES | IC50 (human CB1 receptor [1]) | IC50 (human CB1 receptor [2])
1 | FC(F)(F)C1CCN(c2nc(OC3CCCOC3)nc3c2nc(-c2ccccc2Cl)n3-c2ccc(Cl)cc2)CC1 (stereo not drawn) [Compound 33, 8-(2-chlorophenyl)-9-(4-chlorophenyl)-2-tetrahydropyran-3-yloxy-6-[4-(trifluoromethyl)-1-piperidyl]purine] | 4.98 nM | 1.42 nM
2 | CC1(C(N)=O)CCN(c2nc(N3CCC[C@H]3CO)nc3c2nc(-c2ccc(C#N)cc2)n3-c2ccc(Cl)cc2)CC1 [Compound 36, 1-[9-(4-chlorophenyl)-8-(4-cyanophenyl)-2-[(2S)-2-(hydroxymethyl)pyrrolidin-1-yl]purin-6-yl]-4-methyl-piperidine-4-carboxamide] | 1.52 nM | 0.686 nM
3 | CN(CC(C)(C)O)c1nc(N2CCC(C(F)(F)F)CC2)c2nc(-c3ccccc3Cl)n(-c3ccc(Cl)cc3)c2n1 [Compound 38, 1-[[8-(2-chlorophenyl)-9-(4-chlorophenyl)-6-[4-(trifluoromethyl)-1-piperidyl]purin-2-yl]-methyl-amino]-2-methyl-propan-2-ol] | 6.48 nM | 1.67 nM
4 | FC(F)(F)C1CCN(c2nc(-c3cc[nH]n3)nc3c2nc(-c2ccccc2Cl)n3-c2ccc(Cl)cc2)CC1 [Compound 39] | 16.4 nM | 3.29 nM
5 | CN(CC(C)(C)O)c1nc(N2CCC(C)(C(N)=O)CC2)c2nc(-c3ccccc3Cl)n(-c3ccc(Cl)cc3)c2n1 [Compound 40, 1-[8-(2-chlorophenyl)-9-(4-chlorophenyl)-2-[(2-hydroxy-2-methyl-propyl)-methyl-amino]purin-6-yl]-4-methyl-piperidine-4-carboxamide] | 15.3 nM | 0.971 nM
6 | COCCN(C)c1nc(N2CCC(C)(C(N)=O)CC2)c2nc(-c3ccccc3Cl)n(-c3ccc(Cl)cc3)c2n1 [Compound 42, 1-[8-(2-chlorophenyl)-9-(4-chlorophenyl)-2-[2-methoxyethyl(methyl)amino]purin-6-yl]-4-methyl-piperidine-4-carboxamide] | 2.39 nM | 0.695 nM
7 | CC1(C(N)=O)CCN(c2nc(-n3ccnc3CO)nc3c2nc(-c2ccccc2Cl)n3-c2ccc(Cl)cc2)CC1 [Compound 43, 1-[8-(2-chlorophenyl)-9-(4-chlorophenyl)-2-[2-(hydroxymethyl)imidazol-1-yl]purin-6-yl]-4-methyl-piperidine-4-carboxamide] | 5.27 nM | 1.37 nM
8 | CC1(C(N)=O)CCN(c2nc(-c3cc[nH]n3)nc3c2nc(-c2ccccc2Cl)n3-c2ccc(Cl)cc2)CC1 [Compound 44] | 10 nM | 2.1 nM

The remaining lines, values ahead:

Row | IC50 (human CB1 receptor [1]) | IC50 (human CB1 receptor [2]) | SMILES
9 | 17.6 nM | 6.62 nM | CC(=O)NC(=N)Nc1nc(N2CCC(C(F)(F)F)CC2)c2nc(-c3ccccc3Cl)n(-c3ccc(Cl)cc3)c2n1 [Compound 34, N—[N-[8-(2-chlorophenyl)-9-(4-chlorophenyl)-6-[4-(trifluoromethyl)-1-piperidyl]purin-2-yl]carbamimidoyl]acetamide]
10 | 3.3 nM | 0.687 nM | OC[C@@H]1CCCN1c1nc(N2CCC(C(F)(F)F)CC2)c2nc(-c3ccccc3Cl)n(-c3ccc(Cl)cc3)c2n1 [Compound 35, [(2S)-1-[8-(2-chlorophenyl)-9-(4-chlorophenyl)-6-[4-(trifluoromethyl)-1-piperidyl]purin-2-yl]pyrrolidin-2-yl]methanol]
11 | 60.5 nM | 7.39 nM | CC1(C(N)=O)CCN(c2nc(N3CCC[C@H]3CO)nc3c2nc(-c2cccc(C#N)c2)n3-c2ccc(Cl)cc2)CC1 [Compound 37, 1-[9-(4-chlorophenyl)-8-(3-cyanophenyl)-2-[(2S)-2-(hydroxymethyl)pyrrolidin-1-yl]purin-6-yl]-4-methyl-piperidine-4-carboxamide]
12 | 7.33 nM | 1.65 nM | CN(CC1(O)CC1)c1nc(N2CCC(C)(C(N)=O)CC2)c2nc(-c3ccccc3Cl)n(-c3ccc(Cl)cc3)c2n1 [Compound 41, 1-[8-(2-chlorophenyl)-9-(4-chlorophenyl)-2-[(1-hydroxycyclopropyl)methyl-methyl-amino]purin-6-yl]-4-methyl-piperidine-4-carboxamide]
